The record followed here is ChEMBL document CHEMBL3608237, “Novel inhibitor against Malassezia globosa LIP1 (SMG1), a potential anti-dandruff target” (Bioorg Med Chem Lett, 2015).

As a reminder, the pIC50 is the negative decadic logarithm of the IC50, by convention in mol/L. Low readings indicate a large IC50, high ones a small IC50.

Molecules are shown by their SMILES. pIC50: −log10 of the molar value. The source made the active and inactive calls. No cut-off for these calls is given here.

Assay [1] has as its target T1, Secreted mono- and diacylglycerol lipase LIP1 (Malassezia globosa (strain ATCC MYA-4612 / CBS 7966)(Dandruff-associated fungus), UniProt A8PUY1).
T1 sequence (A8PUY1 whole entry): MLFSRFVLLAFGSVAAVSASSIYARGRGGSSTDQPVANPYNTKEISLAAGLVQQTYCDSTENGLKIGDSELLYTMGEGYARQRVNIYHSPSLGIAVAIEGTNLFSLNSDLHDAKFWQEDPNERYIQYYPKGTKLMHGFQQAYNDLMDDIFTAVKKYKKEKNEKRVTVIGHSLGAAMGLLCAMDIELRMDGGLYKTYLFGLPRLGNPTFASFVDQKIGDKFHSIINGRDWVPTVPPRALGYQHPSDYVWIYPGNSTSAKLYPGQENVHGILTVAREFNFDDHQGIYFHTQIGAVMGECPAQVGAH
Description: Inhibition of Malassezia globosa CBS 7966 LIP1 using pNPC substrate.

For assay [2], the target named is T2, Secreted mono- and diacylglycerol lipase LIP1 (Malassezia globosa (strain ATCC MYA-4612 / CBS 7966)(Dandruff-associated fungus)) (UniProt A8PUY1).
T2 sequence (whole entry): T1 sequence (A8PUY1 whole entry)
Description: Competitive inhibition of Malassezia globosa CBS 7966 LIP1 using pNPA substrate by Lineweaver-Burk plot method.

Assay [3] addresses T1, Secreted mono- and diacylglycerol lipase LIP1. The assay is described as follows: Inhibition of Malassezia globosa CBS 7966 LIP1 using pNPA substrate.
For assay [4] the target is unchanged. The assay is described as follows: Inhibition of Malassezia globosa CBS 7966 LIP1 incubated for 1 hr using monoolein substrate.

With `O=C1c2ccccc2CN1CCSC(=S)N1CCCCCC1`, the negative-log IC50 (pIC50) in assay [1] is 4.61; in assay [3] it was 4.70; in assay [4], 6.72. Also, the inhibition entry in assay [2] was “Dose-dependent effect”.

As for `Cc1ccc(C(=O)Oc2ccc3ccc(O)cc3c2)cc1`, in assay [2], the inhibition entry is “Active”. In assay [3], this molecule gave a negative logarithm of the IC50 (pIC50) of 4.09.

`O=C1c2ccccc2C(=O)N1CCSC(=S)N1CCOCC1` showed a negative-log IC50 (pIC50) in assay [1] below 3.70.

`O=C(O)c1ccc(=S)n(CC(=O)c2ccccc2)c1`: in assay [2], the inhibition entry is “Active”. In assay [3], this molecule had a pIC50 of 4.01.

`O=C1c2ccccc2C(=O)N1CCSC(=S)N1CCCCCC1`: the pIC50 in assay [1] was 4.20.

`O=C(NCCCCCCNC(=O)ON=C1CCCCC1)ON=C1CCCCC1`: the inhibition entry in assay [2] was “Active”. The molecule further had a negative-log IC50 (pIC50) in assay [3] of 4.12.

As for `O=C1c2ccccc2CN1CCSC(=S)N1CCOCC1`, in assay [1], the negative-log IC50 (pIC50) was below 3.70.

For the molecule `O=C1c2ccccc2CN1CCSC(=S)N1CCCC1`, the pIC50 in assay [1] was 4.64.

In assay [1], `O=C1c2ccccc2C(=O)N1CCSC(=S)N1CCCC1` showed a pIC50 below 3.70.
